Test [1] concerns the target T1, α7^Q79G-5HT3 (Homo sapiens, UniProt P36544, M226I/Q79G/T225I).
T1 construct: expressed in transfected cells; host or cells: HEK cells
Nature of the test: Agonist potency (EC50), HEK cells expressing chimeric channel. The format is cell-based, human α7 nAChR LBD, murine 5HT3 IPD. The conditions noted are these: read-out: Mean EC50, α7^Q79G-5HT3.

Test [2] concerns the target T2, α7-GlyR (Homo sapiens, UniProt P36544).
T2 construct: expressed in transfected cells; host or cells: HEK cells
Described as above. The format is cell-based.

Test [3] concerns the target T3, α7^W77F,G175K-GlyR (Homo sapiens, UniProt P36544, G175K/W77F).
T3 construct: expressed in transfected cells
Nature of the test: Agonist potency at chimeric channel. It counts as cell-based.

Test [4] addresses T4, α7GlyR W77F Q79G Y115F G175K (Homo sapiens, UniProt P36544, G175K/Q79G/W77F/Y115F).
T4 construct: expressed in transfected cells
Nature of the test: Agonist potency at chimeric channel. It counts as cell-based.

Test [5] addresses T5, α7GlyR Q79G Y115F G175K K322L (Homo sapiens, UniProt P36544, G175K/Q79G/Y115F).
T5 construct: expressed in transfected cells
Nature of the test: Agonist potency at chimeric channel. It counts as cell-based.

The target of test [6] is T6, α7^Q79S,L131G,Q139L-GlyR (Homo sapiens, UniProt P36544, L131G/Q139L/Q79S).
T6 construct: expressed in transfected cells
Nature of the test: cell-based. The format is cell-based.

In test [7] the target is T7, α7^L131F-GlyR (Homo sapiens, UniProt P36544, L131F).
T7 construct: expressed in transfected cells
Nature of the test: Agonist potency at chimeric channel (Table 9). It counts as cell-based.

The target of test [8] is T8, α7^L131G-GABAc (Homo sapiens, UniProt P36544, L131G).
T8 construct: expressed in transfected cells
Nature of the test: Agonist potency at chimeric channel (Table 9). The format is cell-based.

The target in test [9] is T9, α7GlyR Q79G L131G (Homo sapiens, UniProt P36544, L131G/Q79G).
T9 construct: expressed in transfected cells
Nature of the test: Agonist potency at chimeric channel (Table 9). The format is cell-based.

The target of test [10] is T10, α7^Q79A-GlyR (Homo sapiens, UniProt P36544, Q79A).
T10 construct: expressed in transfected cells; host or cells: HEK cells
Nature of the test: Agonist potency (EC50), HEK cells expressing chimeric channel. The format is cell-based.

The target in test [11] is T11, α7^Q79G-GlyR^A298G (Homo sapiens, UniProt P36544, A298G/Q79G).
T11 construct: expressed in transfected cells; host or cells: HEK cells
Described as above. It counts as cell-based.

Test [12] has as its target T12, α7^P216I-GlyR (Homo sapiens, UniProt P36544, P216I).
T12 construct: expressed in transfected cells
Nature of the test: Agonist potency at chimeric channel. The format is cell-based.

Test [13] has as its target T13, α7GlyR Q79G G175K Y115F R27D E41R (Homo sapiens, UniProt P36544, E41R/G175K/Q79G/R27D/Y115F).
T13 construct: expressed in transfected cells
Nature of the test: Agonist potency at chimeric channel. It counts as cell-based.

In test [14] the target is T14, α7^L131G,Q139L,Y217F-GlyR (Homo sapiens, UniProt P36544, L131G/Q139L/Y217F).
T14 construct: expressed in transfected cells
Nature of the test: cell-based. It counts as cell-based.

Test [15] concerns the target T15, α7GlyR Q79S L131G Q139L Y217F (Homo sapiens, UniProt P36544, L131G/Q139L/Q79S/Y217F).
T15 construct: expressed in transfected cells
Nature of the test: cell-based.

The target in test [16] is T16, α7^Q79G,Y115F-5HT3 (Homo sapiens, UniProt P36544, M226I/Q79G/T225I/Y115F).
T16 construct: expressed in transfected cells; host or cells: HEK cells
Nature of the test: Agonist potency (EC50), HEK cells expressing chimeric channel. The format is cell-based, human α7 nAChR LBD, murine 5HT3 IPD. The conditions noted are these: Table 4.

Test [17] addresses T17, α7^Q79G,Q139G-5HT3 (Homo sapiens, UniProt P36544, M226I/Q139G/Q79G/T225I).
T17 construct: expressed in transfected cells; host or cells: HEK cells
The description is as above. The format is cell-based, human α7 nAChR LBD, murine 5HT3 IPD. The settings on record: Table 4.

In test [18] the target is T18, α7^Q79G,Y115F-GlyR^A298G (Homo sapiens, UniProt P36544, A298G/Q79G/Y115F).
T18 construct: expressed in transfected cells; host or cells: HEK cells
The test is described as above. The format is cell-based. The conditions noted are these: Table 4.

For test [19], the target named is T19, α7^R27D,E41R,Q79G,Y115F-GlyR^A298G (Homo sapiens, UniProt P36544, A298G/E41R/Q79G/R27D/Y115F).
T19 construct: expressed in transfected cells; host or cells: HEK cells
The test is described as above. The format is cell-based. The settings on record: Table 4, read-out: Mean EC50, α7^R27D,E41R,Q79G,115F-GlyR^A298G.

The target in test [20] is T20, α7^L131G,Q139L,Y217F-5HT3 HC (Homo sapiens, UniProt P36544, L131G/M226I/Q139L/T225I/Y217F).
T20 construct: expressed in transfected cells
Nature of the test: Agonist potency at chimeric channel (Table 9). The format is cell-based. The settings on record: α75HT3 L131G Q139L Y217F HC.

Test [21] deals with T21, α7^R27D,E41R-5HT3 (Homo sapiens, UniProt P36544, E41R/M226I/R27D/T225I).
T21 construct: expressed in transfected cells; host or cells: HEK cells
Nature of the test: Whole cell recordings in HEK cells. It counts as cell-based, human α7 nAChR LBD, murine 5HT3 IPD. The conditions noted are these: V5 epitope tag.

The mark [22] stands for this setting: read-out: Agonist potency, a7GlyR.

Read-outs that look alike come from different tables or passages of the source.

T2 sequence (P36544 with tags, fused parts or gaps): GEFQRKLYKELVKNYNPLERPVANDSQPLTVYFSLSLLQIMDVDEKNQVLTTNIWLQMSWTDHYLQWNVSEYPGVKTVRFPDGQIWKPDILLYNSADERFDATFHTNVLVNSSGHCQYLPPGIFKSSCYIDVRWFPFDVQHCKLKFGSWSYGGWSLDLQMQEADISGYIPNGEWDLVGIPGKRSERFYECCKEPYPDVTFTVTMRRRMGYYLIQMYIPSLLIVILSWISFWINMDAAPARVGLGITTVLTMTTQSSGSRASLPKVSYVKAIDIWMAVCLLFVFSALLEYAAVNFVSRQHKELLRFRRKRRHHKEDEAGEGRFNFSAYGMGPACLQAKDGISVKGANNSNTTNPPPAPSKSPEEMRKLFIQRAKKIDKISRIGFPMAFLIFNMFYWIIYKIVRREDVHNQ
T11 sequence (P36544 with tags, fused parts or gaps Q79G): as the sequence (P36544 with tags, fused parts or gaps) above, with Q57G, A276G counted along it
T14 sequence (P36544 with tags, fused parts or gaps L131G/Q139L/Y217F): as the sequence (P36544 with tags, fused parts or gaps) above, with L109G, Q117L, Y195F counted along it
T15 sequence (P36544 with tags, fused parts or gaps Q79S/L131G/Q139L/Y217F): as the sequence (P36544 with tags, fused parts or gaps) above, with Q57S, L109G, Q117L, Y195F counted along it
T4 sequence (P36544 with tags, fused parts or gaps W77F/Q79G/Y115F/G175K): as the sequence (P36544 with tags, fused parts or gaps) above, with W55F, Q57G, Y93F, G153K counted along it
T5 sequence (P36544 with tags, fused parts or gaps Q79G/Y115F/G175K): as the sequence (P36544 with tags, fused parts or gaps) above, with Q57G, Y93F, G153K, K300L counted along it
T13 sequence (P36544 with tags, fused parts or gaps R27D/E41R/Q79G/Y115F/G175K): as the sequence (P36544 with tags, fused parts or gaps) above, with R5D, E19R, Q57G, Y93F, G153K counted along it
T10 sequence (P36544 with tags, fused parts or gaps Q79A): as the sequence (P36544 with tags, fused parts or gaps) above, with Q57A counted along it
T9 sequence (P36544 with tags, fused parts or gaps Q79G/L131G): as the sequence (P36544 with tags, fused parts or gaps) above, with Q57G, L109G counted along it
T6 sequence (P36544 with tags, fused parts or gaps Q79S/L131G/Q139L): as the sequence (P36544 with tags, fused parts or gaps) above, with Q57S, L109G, Q117L counted along it
T12 sequence (P36544 with tags, fused parts or gaps P216I): as the sequence (P36544 with tags, fused parts or gaps) above, with P194I counted along it
T3 sequence (P36544 with tags, fused parts or gaps W77F/G175K): as the sequence (P36544 with tags, fused parts or gaps) above, with W55F, G153K counted along it
T7 sequence (P36544 with tags, fused parts or gaps L131F): as the sequence (P36544 with tags, fused parts or gaps) above, with L109F counted along it
T1 sequence (P36544 with tags, fused parts or gaps Q79G/T225I/M226I): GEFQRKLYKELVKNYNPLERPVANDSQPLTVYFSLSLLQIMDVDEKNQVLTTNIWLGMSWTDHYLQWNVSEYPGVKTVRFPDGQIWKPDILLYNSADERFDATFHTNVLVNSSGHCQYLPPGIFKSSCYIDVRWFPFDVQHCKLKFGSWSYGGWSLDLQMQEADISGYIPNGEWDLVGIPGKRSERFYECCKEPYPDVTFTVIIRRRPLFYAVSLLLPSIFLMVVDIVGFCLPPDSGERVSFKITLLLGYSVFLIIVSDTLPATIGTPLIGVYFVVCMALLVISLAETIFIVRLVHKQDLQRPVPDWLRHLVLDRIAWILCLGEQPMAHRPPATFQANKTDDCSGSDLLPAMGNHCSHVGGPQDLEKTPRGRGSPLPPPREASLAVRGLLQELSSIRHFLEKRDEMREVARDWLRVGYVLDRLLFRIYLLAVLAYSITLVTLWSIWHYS
T8 sequence (P36544 with tags, fused parts or gaps L131G): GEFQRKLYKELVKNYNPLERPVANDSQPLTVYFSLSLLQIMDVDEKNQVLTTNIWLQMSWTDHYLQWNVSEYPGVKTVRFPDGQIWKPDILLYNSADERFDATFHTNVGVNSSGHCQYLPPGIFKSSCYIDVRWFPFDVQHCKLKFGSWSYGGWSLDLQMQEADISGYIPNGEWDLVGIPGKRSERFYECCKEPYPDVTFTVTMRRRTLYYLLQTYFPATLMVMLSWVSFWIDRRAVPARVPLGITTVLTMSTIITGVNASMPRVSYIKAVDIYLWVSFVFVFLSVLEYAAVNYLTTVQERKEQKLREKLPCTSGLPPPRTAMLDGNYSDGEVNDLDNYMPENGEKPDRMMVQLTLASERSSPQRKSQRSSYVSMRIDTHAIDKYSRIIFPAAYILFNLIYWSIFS
T17 sequence (P36544 with tags, fused parts or gaps Q79G/Q139G/T225I/M226I): as the sequence (P36544 with tags, fused parts or gaps Q79G/T225I/M226I) above, with Q117G counted along it
T21 sequence (P36544 with tags, fused parts or gaps R27D/E41R/T225I/M226I limits assumed): as the sequence (P36544 with tags, fused parts or gaps Q79G/T225I/M226I) above, with R5D, E19R, G57Q counted along it
T16 sequence (P36544 with tags, fused parts or gaps Q79G/Y115F/T225I/M226I): as the sequence (P36544 with tags, fused parts or gaps Q79G/T225I/M226I) above, with Y93F counted along it
T18 sequence (P36544 with tags, fused parts or gaps Q79G/Y115F): as the sequence (P36544 with tags, fused parts or gaps) above, with Q57G, Y93F, A276G counted along it
T20 sequence (P36544 with tags, fused parts or gaps L131G/Q139L/Y217F/T225I/M226I limits assumed): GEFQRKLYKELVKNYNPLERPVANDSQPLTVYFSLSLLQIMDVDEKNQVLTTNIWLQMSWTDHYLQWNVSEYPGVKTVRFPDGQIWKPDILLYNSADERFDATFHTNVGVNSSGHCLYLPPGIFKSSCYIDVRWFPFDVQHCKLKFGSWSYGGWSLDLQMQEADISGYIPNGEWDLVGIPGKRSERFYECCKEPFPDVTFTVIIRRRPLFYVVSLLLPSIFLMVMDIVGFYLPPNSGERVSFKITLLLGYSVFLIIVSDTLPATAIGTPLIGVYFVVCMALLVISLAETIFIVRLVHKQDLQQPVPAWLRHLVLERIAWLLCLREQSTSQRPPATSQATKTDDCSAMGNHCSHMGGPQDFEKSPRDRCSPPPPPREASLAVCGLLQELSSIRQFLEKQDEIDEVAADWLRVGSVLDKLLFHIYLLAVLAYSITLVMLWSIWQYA
T19 sequence (P36544 with tags, fused parts or gaps R27D/E41R/Q79G/Y115F): as the sequence (P36544 with tags, fused parts or gaps) above, with R5D, E19R, Q57G, Y93F, A276G counted along it

Consider `O=c1cccc2n1C[C@@H]1CNC[C@H]2C1` [Cytisine], for which the EC50 in [1] amounted to 1700 nM; in [2], 6400 nM; in [2] (read-out: Agonist potency), 6400 nM; in test [2] (setting [22]), 6400 nM; in [3], 1500 nM; in [4] it was 4020 nM. Besides, the EC50 in test [5] was > 30000 nM; in test [6], 10000 nM; in test [7], 10500 nM; in [8], > 500000 nM; in [9], > 30000 nM.

For `Clc1ccc(C2CC3CCC2N3)cn1` (centres unmarked) [Epibatidine], the EC50 in [1] (HEK cells, Table 1) is 50 nM; in [10], 38 nM; in test [11], 32 nM; in test [12] it was 30 nM; in test [3] it was 40 nM; in [5] it was 270 nM. Also, the EC50 came out at 59 nM in test [13], 21 nM in test [14], 12 nM in test [6] and 22 nM in test [15].

Consider `O=C(NC1CN2CCC1CC2)c1ccc(Cl)cc1` (centres unmarked) [PNU-282987], for which the EC50 in test [2] was 130 nM; in test [2] (read-out: Agonist potency) it was 130 nM; in [2] (setting [22]), 130 nM; in test [2] (read-out: α7-GlyR EC50) it was 130 nM; in test [10] it was 22 nM; in test [11], 7 nM. Besides, the EC50 in test [11] (read-out: α7^Q79G-GlyR^A298G EC50) was 7 nM; in test [16], 350 nM; in test [17], 160 nM; in test [18], 220 nM; in test [19] it was 66 nM; in test [12], 40 nM. The EC50 is > 1000 nM in [4]; 50 nM in test [13]; 160 nM in [14]; 200 nM in test [7]; 15 nM in test [20]; 96 nM in [9]. The compound also showed an EC50 in test [15] of 50 nM. Moreover, in test [21], the whole cell response result is listed as “potent responses”.

Values taken from patent US11124554B2, “Modified ligand-gated ion channels and methods of use” (Howard Hughes Medical Institute, priority 2016, dated 2021).
